# In PubChem BioAssay (NCI):
# “And” between values parts separate entries of the source, which are not always exact repeats. Identical values can stand only once.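 All cell lines were grown in 96-well plates and treated with compound for 48 hours. GI50 is the concentration that inhibits growth by half. Definition used: TGI = concentration required for complete inhibition of growth.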
# Legend:
# Assay in all cases: DTP human tumour cell line panel, 48 h
# [1] = system: SN12C renal
# [2] = system: SK-MEL-28 melanoma
# [3] = system: OVCAR-5 ovarian
# [4] = system: NCI-H226 lung
# [5] = system: NCI-H522 lung
# [6] = system: RXF 393 renal
# [7] = system: SW-620 colon
# [8] = system: HOP-92 NSCLC
# [9] = system: HCT-15 colon
# [10] = system: HL-60(TB) leukemia
Structure (SMILES),GI50 [1],TGI [1],GI50 [2],TGI [2],GI50 [3] [µM],TGI [3],GI50 [4] [µM],TGI [4],GI50 [5] [µM],TGI [5],GI50 [6] [µM],TGI [6] [µM],GI50 [7],TGI [7] [µM],GI50 [8] [µM],TGI [8],GI50 [9] [µM],TGI [9],GI50 [10] [µM],TGI [10]
c1ccc2nc(Cn3c[n+](Cc4ccc5ccccc5n4)c4ccccc43)ccc2c1,2.19 µM,10.9 µM,2.38 µM,9.98 µM,2.43,13.7 µM,4.13,20.4 µM,1.56,9.72 µM,3.1,12,3.3 µM,15.4,0.93,4.3 µM,15.1,32.6 µM,–,–
CN(C)c1ccc2nc3ccc(=[N+](C)C)cc-3oc2c1,0.892 µM,3.5 µM,5.72 µM,45.7 µM,–,–,2.1,6.76 µM,–,–,10.6,50.4,1.74 µM,> 100,–,–,3.48,> 100 µM,0.269,1.2 µM
O=C(CCl)c1ccc([N+](=O)[O-])o1,2.38 µM,7.27 µM,1.61 µM,3.14 µM,2.48,5.3 µM,2.45,7.05 µM,2.81,> 21.1 µM,2.2,8.24,0.886 µM,2.54,–,–,1.61,3.22 µM,1.64,–
O=C(CCn1[nH]c(=O)c(Cl)c(Cl)c1=O)NOCCCc1ccccc1,–,> 100 µM,–,> 100 µM,–,> 100 µM,–,> 100 µM,–,–,–,–,–,> 100,–,> 100 µM,–,> 100 µM,–,> 100 µM
CN(C)CCCNC(=O)c1cc(NC(=O)CCNS(=O)(=O)c2ccc3c(c2)C(=O)c2ccccc2C3=O)cn1C,> 100 µM,> 100 µM,–,–,> 100,> 100 µM,> 100,> 100 µM,> 100,> 100 µM,> 100,> 100,> 100 µM,> 100,88.9,> 100 µM,–,–,–,–
O=C1C(Cl)=C(N/N=c2/[nH][nH]/c(=N/NC3=C(Cl)C(=O)c4ccccc4C3=O)c3ccccc23)C(=O)c2ccccc21,15 µM,29.5 µM,19.5 µM,39 µM,18.7,39.1 µM,17.8,44 µM,2.78,10.9 µM,–,–,16.6 µM,43.3,–,–,19.8,> 100 µM,8.45,34.2 µM
CCN=C1C=CC(=C(c2ccc(N(C)C)cc2)c2ccc(N(C)C)cc2)c2ccccc21,0.035 µM,1.37 µM,0.15 µM,1.66 µM,0.215,1.19 µM,–,–,–,–,–,–,0.113 µM,1.11,0.0414,0.352 µM,0.294,1.31 µM,0.0434,0.141 µM
CCc1ccc(NCc2cc(OC)c(OC)c(OC)c2)cc1,0.578 µM and 1.16 µM,38.4 µM and > 68.7 µM,1.27 µM and 0.185 µM,> 75.2 µM and 69.6 µM,4.09,> 76.1 µM,–,> 85 µM,0.274,0.59 µM and 0.807 µM,–,–,0.0871 µM and 0.0541 µM,> 100,5.24,22.2 µM and 74.6 µM,–,42.2 µM and 20.4 µM,–,7.94 µM and 5.38 µM
COC12C=CC(CC1)c1c(O)ccc(O)c12 (stereo unspecified),–,> 100 µM,–,> 100 µM,–,> 100 µM,–,> 100 µM,–,35.1 µM,–,> 100,–,> 63.8,–,–,–,> 55.9 µM,–,41.6 µM
Nc1ncnc2sc(=S)c3c(c12)CCC3,32.8 µM,> 100 µM,> 100 µM,> 100 µM,42,> 100 µM,28.7,> 100 µM,47.1,> 100 µM,26.9,55.1,33.5 µM,> 100,–,–,38.2,> 100 µM,–,–
Cc1ccc2[nH]c(C(=O)NN3C(=O)CSC34CCCCC4C)c(-c3ccccc3)c2c1 (stereo unspecified),17.7 µM,34.2 µM,19.9 µM,38.3 µM,19.7,36.1 µM,17.5,34.2 µM,13.1,27.9 µM,–,–,23.8 µM,60.1,12.7,27.3 µM,18,39.1 µM,–,–
CC[C@](C)(O)C(=O)O[C@H]1C(=O)O[C@@H]2C[C@H]3C(C)=CC(=O)[C@@H](O)[C@]3(C)[C@H]3[C@@]4(O)OC[C@]32[C@@H]1[C@@H](C)[C@H]4O,0.317 µM,2.03 µM and 5.18 µM,0.0609 µM,0.264 µM and 0.16 µM,0.762,8.16 µM and 6.86 µM,0.203,0.664 µM and 0.435 µM,0.0296,0.148 µM,0.285,–,0.216 µM,–,–,–,0.214,0.874 µM and 0.533 µM,0.104,4.11 µM and 1.09 µM
Nc1cc(=O)[nH]c(SC2=NC(N)CC(O)C2)n1 (stereo unspecified),–,> 100 µM,–,> 100 µM,–,> 100 µM,–,> 100 µM,–,> 100 µM,–,–,–,> 100,–,> 100 µM,–,> 100 µM,–,–
C=CCC(N[C@H](CO)C(C)C)c1cn(C(=O)OCC)c2ccccc12 (stereo partly specified),19.7 µM,51.6 µM,53.6 µM,> 100 µM,48.6,> 100 µM,–,–,17.9,40.2 µM,18.9,54.2,27.9 µM,> 100,14.1,45.6 µM,32.4,> 100 µM,–,–
COC(=O)[C@@H]1CSC(=S)N1C(=O)C[C@H]1CC=CC[C@H]1CC(=O)Sc1ccccc1,–,30.4 µM,–,32.1 µM,–,33.8 µM,–,47.2 µM,–,18.2 µM,–,30.4,–,33.9,–,–,–,32.3 µM,–,14 µM
